Target: T1, YdhE (CO-YdhE) (Bacillus licheniformis, UniProt Q62XT4)
T1 construct: 45 kDa band on SDS-PAGE; not purified
T1 sequence (Q62XT4 1-404): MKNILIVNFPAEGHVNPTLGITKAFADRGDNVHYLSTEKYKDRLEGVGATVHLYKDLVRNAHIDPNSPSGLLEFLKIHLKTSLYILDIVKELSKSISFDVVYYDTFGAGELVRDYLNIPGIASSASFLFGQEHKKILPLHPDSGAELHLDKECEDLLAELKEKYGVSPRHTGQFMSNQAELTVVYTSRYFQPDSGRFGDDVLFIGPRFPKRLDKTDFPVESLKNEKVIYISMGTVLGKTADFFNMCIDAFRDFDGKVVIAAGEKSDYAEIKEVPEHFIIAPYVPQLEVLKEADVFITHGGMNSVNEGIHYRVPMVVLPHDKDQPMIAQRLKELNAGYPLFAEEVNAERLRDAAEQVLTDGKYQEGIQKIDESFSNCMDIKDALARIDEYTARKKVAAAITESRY
Assay: whole-cell N-glucosylation, HPLC-PDA and HR-QTOF ESI/MS, product NMR
Type: cell-based, Corynebacterium glutamicum
Conditions: C. glutamicum harboring pSKSM-YdhE; glucose as sugar source, UDP-sugar donor made by host; 2 mM substrate, 37 °C; product is N-beta-D-glucopyranoside

In the case of CCCCOC(=O)c1ccc(N)cc1 [compound 2, butyl-4-aminobenzoate], the “whole-cell N-glucosylation, HPLC-PDA and HR-QTOF ESI/MS, product NMR” value is reported as “confirmed the glucosylation of butyl-4-aminobenzoate”.
